Earlier results, collected in patent EP2697366B1, “B[…] THE PRESERVATION OF CELLULAR FUN[…] CLINICAL CELL THERAPY” (Johann Wolfgang Goethe-Universität, Frankfurt am Main, priority 2011, dated 2018).

Key:
[1] = in vivo
[2] = two large clinical studies

## CC[C@H](C)[C@H](NC(=O)[C@H](CCC(=O)O)NC(=O)[C@H](CCC(=O)O)NC(=O)[C@H](Cc1ccccc1)NC(=O)[C@H](CC(=O)O)NC(=O)CNC(=O)[C@H](CC(N)=O)NC(=O)CNC(=O)CNC(=O)CNC(=O)CNC(=O)[C@@H]1CCCN1C(=O)[C@H](CCCNC(=N)N)NC(=O)[C@@H]1CCCN1C(=O)[C@H](N)Cc1ccccc1)C(=O)N1CCC[C@H]1C(=O)N[C@@H](CCC(=O)O)C(=O)N[C@@H](CCC(=O)O)C(=O)N[C@@H](Cc1ccc(O)cc1)C(=O)N[C@@H](CC(C)C)C(=O)O [Bivalirudin]
[1]
  Eliminationshalbwertszeit: ca. 25 Minuten
[2]
  schwere Blutungskomplikationen: hochsignifikanten Reduktion schwerer Blutungskomplikationen
